Experiments:
Assay type in all cases: in vivo
soybean = experiment: Test Example 4: effect on crop by soil treatment (symbol d)
Method in brief: (§1)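 The test used sterilized diluvial soil. Seed was set down in spots and overlaid with about 1.5 cm of soil before growth in a greenhouse kept at 25° C. to 30° C.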

Chenopodium album [1] = experiment: Test Example 4: herbicidal effect by soil treatment (symbol O)
Method in brief: (§2)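 Seeds were sown in sterilized diluvial soil, covered with about 1.5 cm of soil, and the soil surface was sprayed with a water-diluted emulsion of the compound at a predetermined rate. Plants grew in a greenhouse at 25° C. to 30° C.; effects were scored visually 3 weeks after application.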

Lolium multiflorum Lam. = experiment: Test Example 4: herbicidal effect by soil treatment (symbol K)
Method in brief: as §2

Avena fatua = experiment: Test Example 5: herbicidal effect by foliage application, plastic box (symbol I); settings: 320 g/ha, 3 weeks after application
Method in brief: (§3)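 Seeds were sown in sterilized diluvial soil, covered with about 1.5 cm of soil and grown 14 days in a greenhouse at 25° C. to 30° C. An emulsifiable formulation diluted in water to a set rate was sprayed over foliage, and injury was scored 3 weeks later.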

Veronica persica = experiment: Test Example 5: herbicidal effect by foliage application, plastic box (symbol R); settings: 320 g/ha, 3 weeks after application
Method in brief: as §3

Chenopodium album [2] = experiment: Test Example 5: herbicidal effect by foliage application, plastic box (symbol O); settings: 320 g/ha, 3 weeks after application
Method in brief: as §3

rice plant = experiment: Test Example 5: effect on crop by foliage application, plastic box (symbol b); settings: 320 g/ha, 3 weeks after application
Method in brief: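 Seeds were sown in spots in sterilized diluvial soil held in a plastic box 21 cm × 13 cm × 7 cm deep, covered with about 1.5 cm of soil, and grown in a greenhouse at 25° C. to 30° C.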

[3] = test system: Echinochloa oryzacola Vasing.; experiment: Test Example 2: herbicidal activity, application during weed generation in submerged conditions (symbol A); settings: Table 23; application herbicide amount 320 g/ha; grade 0-5 by criteria of Test Example 1
Method in brief: (§4)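 Alluvial soil in pots was flooded to a 4 cm water depth and sown with a mix of the three weed species, then grown in a greenhouse at 25° C. to 30° C. At the one- to two-leaf stage, an emulsifiable formulation diluted in water to a set dose was applied to the water surface. Effects were scored visually 3 weeks later.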

Galium spurium = experiment: Test Example 4: herbicidal effect by soil treatment (symbol Q)
Method in brief: as §2

Apera spica-venti [4] = experiment: Test Example 5: herbicidal effect by foliage application, plastic box (symbol L); settings: 320 g/ha, 3 weeks after application
Method in brief: as §3

Apera spica-venti [5] = experiment: Test Example 4: herbicidal effect by soil treatment (symbol L)
Method in brief: as §2

Digitaria ciliaris = experiment: Test Example 4: herbicidal effect by soil treatment (symbol F)
Method in brief: as §2

Abutilon theophrasti [6] = experiment: Test Example 4: herbicidal effect by soil treatment (symbol M)
Method in brief: as §2

beet = experiment: Test Example 4: effect on crop by soil treatment (symbol f)
Method in brief: as §1

Monochoria vaginalis = experiment: Test Example 2: herbicidal activity, application during weed generation in submerged conditions (symbol C); settings: Table 23; application herbicide amount 320 g/ha; grade 0-5 by criteria of Test Example 1
Method in brief: as §4

Abutilon theophrasti [7] = experiment: Test Example 5: herbicidal effect by foliage application, plastic box (symbol M); settings: 320 g/ha, 3 weeks after application
Method in brief: as §3

Stellaria media = experiment: Test Example 5: herbicidal effect by foliage application, plastic box (symbol P); settings: 320 g/ha, 3 weeks after application
Method in brief: as §3

Setaria viridis = experiment: Test Example 4: herbicidal effect by soil treatment (symbol G)
Method in brief: as §2

[8] = test system: Echinochloa crus-galli var. crus-galli; experiment: Test Example 3: herbicidal effect by foliage application, Wagner pot (symbol H); settings: application herbicide amount 320 g/ha
Method in brief: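 Weeds and rice were sown in alluvial soil under 0.1–0.5 cm of standing water and grown for 14 days in a 25–30 °C greenhouse. An emulsion of the compound, diluted in water to a set dose, was sprayed evenly onto the foliage. Effect was scored against fixed criteria 3 weeks after treatment.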

[9] = application herbicide amount 320 g/ha

## CCC(=O)CC1CC(O)=C(c2c(C)cc(Br)cc2OC)C1=O (racemic) [14-002]
soybean; [9]
  d: soybean, effect on crop grade: 0 (Herbicidal ratio of 5% or lower (almost no effect))
Chenopodium album [1]; [9]
  O: Chenopodium album, herbicidal effect grade: 0 (Herbicidal ratio of 5% or lower (almost no effect))
Lolium multiflorum Lam.; [9]
  K: Lolium multiflorum Lam., herbicidal effect grade: 5 (Herbicidal ratio of 90% or more (almost completely withered))
Avena fatua
  I: Avena fatua, herbicidal effect grade: 5 (Herbicidal ratio of 90% or more (almost completely withered))
Veronica persica
  R: Veronica persica, herbicidal effect grade: 0 (Herbicidal ratio of 5% or lower (almost no effect))
Chenopodium album [2]
  O: Chenopodium album, herbicidal effect grade: 0 (Herbicidal ratio of 5% or lower (almost no effect))
Rice plant
  b: directly sowed rice plant, effect on crop grade: 4 (Herbicidal ratio of 70% or higher and lower than 90%)
[3]
  Herbicidal effect grade, A: Echinochloa oryzacola Vasing.: 5 (Herbicidal ratio of 90% or more (almost completely withered))
Galium spurium; [9]
  Q: Galium spurium, herbicidal effect grade: 0 (Herbicidal ratio of 5% or lower (almost no effect))
Apera spica-venti [4]
  L: Apera spica-venti, herbicidal effect grade: 5 (Herbicidal ratio of 90% or more (almost completely withered))
Apera spica-venti [5]; [9]
  L: Apera spica-venti, herbicidal effect grade: 5 (Herbicidal ratio of 90% or more (almost completely withered))
Digitaria ciliaris; [9]
  F: Digitaria ciliaris, herbicidal effect grade: 5 (Herbicidal ratio of 90% or more (almost completely withered))
Abutilon theophrasti [6]; [9]
  M: Abutilon theophrasti, herbicidal effect grade: 0 (Herbicidal ratio of 5% or lower (almost no effect))
beet; [9]
  f: beet, effect on crop grade: 0 (Herbicidal ratio of 5% or lower (almost no effect))
Monochoria vaginalis
  Herbicidal effect grade, C: Monochoria vaginalis: 0 (Herbicidal ratio of 5% or lower (almost no effect))
Abutilon theophrasti [7]
  M: Abutilon theophrasti, herbicidal effect grade: 4 (Herbicidal ratio of 70% or higher and lower than 90%)
Stellaria media
  P: Stellaria media, herbicidal effect grade: 0 (Herbicidal ratio of 5% or lower (almost no effect))
Setaria viridis; [9]
  G: Setaria viridis, herbicidal effect grade: 5 (Herbicidal ratio of 90% or more (almost completely withered))
[8]; Table 24
  H (Echinochloa crus-galli var. crus-galli) herbicidal effect grade: 5 (Herbicidal ratio of 90% or more (almost completely withered))

## CON=C(C)CC1CC(OC(C)=O)=C(c2c(C)cc(C)cc2C)C1=O (stereo not shown) [1-005]
soybean; [9]
  d (soybean) effect on crop grade: 2 (Herbicidal ratio of 20% or higher and lower than 40%)
Chenopodium album [1]; [9]
  O (Chenopodium album) herbicidal effect grade: 0 (Herbicidal ratio of 5% or lower (almost no effect))
Lolium multiflorum Lam.; [9]
  K (Lolium multiflorum Lam.) herbicidal effect grade: 5 (Herbicidal ratio of 90% or more (almost completely withered))
Avena fatua
  I: Avena fatua, herbicidal effect grade: 5 (Herbicidal ratio of 90% or more (almost completely withered))
Veronica persica
  R: Veronica persica, herbicidal effect grade: 3 (Herbicidal ratio of 40% or higher and lower than 70%)
Chenopodium album [2]
  O: Chenopodium album, herbicidal effect grade: 3 (Herbicidal ratio of 40% or higher and lower than 70%)
Rice plant
  b: directly sowed rice plant, effect on crop grade: 5 (Herbicidal ratio of 90% or more (almost completely withered))
[3]
  Herbicidal effect grade, A: Echinochloa oryzacola Vasing.: 5 (Herbicidal ratio of 90% or more (almost completely withered))
Galium spurium; [9]
  Q (Galium spurium) herbicidal effect grade: 0 (Herbicidal ratio of 5% or lower (almost no effect))
Apera spica-venti [4]
  L: Apera spica-venti, herbicidal effect grade: 5 (Herbicidal ratio of 90% or more (almost completely withered))
Apera spica-venti [5]; [9]
  L (Apera spica-venti) herbicidal effect grade: 5 (Herbicidal ratio of 90% or more (almost completely withered))
Digitaria ciliaris; [9]
  F (Digitaria ciliaris) herbicidal effect grade: 5 (Herbicidal ratio of 90% or more (almost completely withered))
Abutilon theophrasti [6]; [9]
  M (Abutilon theophrasti) herbicidal effect grade: 5 (Herbicidal ratio of 90% or more (almost completely withered))
beet; [9]
  f (beet) effect on crop grade: 4 (Herbicidal ratio of 70% or higher and lower than 90%)
Monochoria vaginalis
  Herbicidal effect grade, C: Monochoria vaginalis: 4 (Herbicidal ratio of 70% or higher and lower than 90%)
Abutilon theophrasti [7]
  M: Abutilon theophrasti, herbicidal effect grade: 4 (Herbicidal ratio of 70% or higher and lower than 90%)
Stellaria media
  P: Stellaria media, herbicidal effect grade: 4 (Herbicidal ratio of 70% or higher and lower than 90%)
Setaria viridis; [9]
  G (Setaria viridis) herbicidal effect grade: 3 (Herbicidal ratio of 40% or higher and lower than 70%)
[8]
  herbicidal effect on H (Echinochloa crus-galli var. crus-galli), grade 0-5: 5 (Herbicidal ratio of 90% or more (almost completely withered))

## CON=C(C)CC1CC(OS(C)(=O)=O)=C(c2c(C)cc(C)cc2C)C1=O (stereo not shown) [1-006]
soybean; [9]
  d (soybean) effect on crop grade: 0 (Herbicidal ratio of 5% or lower (almost no effect))
Chenopodium album [1]; [9]
  O (Chenopodium album) herbicidal effect grade: 0 (Herbicidal ratio of 5% or lower (almost no effect))
Lolium multiflorum Lam.; [9]
  K (Lolium multiflorum Lam.) herbicidal effect grade: 5 (Herbicidal ratio of 90% or more (almost completely withered))
Avena fatua
  I: Avena fatua, herbicidal effect grade: 5 (Herbicidal ratio of 90% or more (almost completely withered))
Veronica persica
  R: Veronica persica, herbicidal effect grade: 2 (Herbicidal ratio of 20% or higher and lower than 40%)
Chenopodium album [2]
  O: Chenopodium album, herbicidal effect grade: 0 (Herbicidal ratio of 5% or lower (almost no effect))
Rice plant
  b: directly sowed rice plant, effect on crop grade: 5 (Herbicidal ratio of 90% or more (almost completely withered))
[3]
  Herbicidal effect grade, A: Echinochloa oryzacola Vasing.: 5 (Herbicidal ratio of 90% or more (almost completely withered))
Galium spurium; [9]
  Q (Galium spurium) herbicidal effect grade: 0 (Herbicidal ratio of 5% or lower (almost no effect))
Apera spica-venti [4]
  L: Apera spica-venti, herbicidal effect grade: 5 (Herbicidal ratio of 90% or more (almost completely withered))
Apera spica-venti [5]; [9]
  L (Apera spica-venti) herbicidal effect grade: 5 (Herbicidal ratio of 90% or more (almost completely withered))
Digitaria ciliaris; [9]
  F (Digitaria ciliaris) herbicidal effect grade: 5 (Herbicidal ratio of 90% or more (almost completely withered))
Abutilon theophrasti [6]; [9]
  M (Abutilon theophrasti) herbicidal effect grade: 4 (Herbicidal ratio of 70% or higher and lower than 90%)
beet; [9]
  f (beet) effect on crop grade: 0 (Herbicidal ratio of 5% or lower (almost no effect))
Monochoria vaginalis
  Herbicidal effect grade, C: Monochoria vaginalis: 3 (Herbicidal ratio of 40% or higher and lower than 70%)
Abutilon theophrasti [7]
  M: Abutilon theophrasti, herbicidal effect grade: 4 (Herbicidal ratio of 70% or higher and lower than 90%)
Stellaria media
  P: Stellaria media, herbicidal effect grade: 0 (Herbicidal ratio of 5% or lower (almost no effect))
Setaria viridis; [9]
  G (Setaria viridis) herbicidal effect grade: 4 (Herbicidal ratio of 70% or higher and lower than 90%)
[8]
  herbicidal effect on H (Echinochloa crus-galli var. crus-galli), grade 0-5: 5 (Herbicidal ratio of 90% or more (almost completely withered))

## CON=C(C)CC1CC(OC(=O)c2nc(C)sc2C)=C(c2c(C)cc(C)cc2C)C1=O (stereo not shown) [1-101]
soybean; 320 g/ha
  d: soybean, effect grade on crop: 2 (Herbicidal ratio of 20% or higher and lower than 40%)
Chenopodium album [1]; 320 g/ha
  O: Chenopodium album, herbicidal effect grade: 0 (Herbicidal ratio of 5% or lower (almost no effect))
Lolium multiflorum Lam.; 320 g/ha
  K: Lolium multiflorum Lam., herbicidal effect grade: 5 (Herbicidal ratio of 90% or more (almost completely withered))
Avena fatua
  I: Avena fatua, herbicidal effect (criteria 0-5): 5 (Herbicidal ratio of 90% or more (almost completely withered))
Veronica persica
  R: Veronica persica, herbicidal effect (criteria 0-5): 3 (Herbicidal ratio of 40% or higher and lower than 70%)
Chenopodium album [2]
  O: Chenopodium album, herbicidal effect (criteria 0-5): 3 (Herbicidal ratio of 40% or higher and lower than 70%)
Rice plant
  b: directly sowed rice plant, effect on crop (criteria 0-5): 5 (Herbicidal ratio of 90% or more (almost completely withered))
[3]
  Herbicidal effect grade, A: Echinochloa oryzacola Vasing.: 5 (Herbicidal ratio of 90% or more (almost completely withered))
Galium spurium; 320 g/ha
  Q: Galium spurium, herbicidal effect grade: 0 (Herbicidal ratio of 5% or lower (almost no effect))
Apera spica-venti [4]
  L: Apera spica-venti, herbicidal effect (criteria 0-5): 5 (Herbicidal ratio of 90% or more (almost completely withered))
Apera spica-venti [5]; 320 g/ha
  L: Apera spica-venti, herbicidal effect grade: 5 (Herbicidal ratio of 90% or more (almost completely withered))
Digitaria ciliaris; 320 g/ha
  F: Digitaria ciliaris, herbicidal effect grade: 5 (Herbicidal ratio of 90% or more (almost completely withered))
Abutilon theophrasti [6]; 320 g/ha
  M: Abutilon theophrasti, herbicidal effect grade: 5 (Herbicidal ratio of 90% or more (almost completely withered))
beet; 320 g/ha
  f: beet, effect grade on crop: 3 (Herbicidal ratio of 40% or higher and lower than 70%)
Monochoria vaginalis
  Herbicidal effect grade, C: Monochoria vaginalis: 2 (Herbicidal ratio of 20% or higher and lower than 40%)
Abutilon theophrasti [7]
  M: Abutilon theophrasti, herbicidal effect (criteria 0-5): 5 (Herbicidal ratio of 90% or more (almost completely withered))
Stellaria media
  P: Stellaria media, herbicidal effect (criteria 0-5): 3 (Herbicidal ratio of 40% or higher and lower than 70%)
Setaria viridis; 320 g/ha
  G: Setaria viridis, herbicidal effect grade: 5 (Herbicidal ratio of 90% or more (almost completely withered))
[8]
  herbicidal effect on H (Echinochloa crus-galli var. crus-galli), grade 0-5: 5 (Herbicidal ratio of 90% or more (almost completely withered))

Reference: patent US11000033B2, “Ketone or oxime compound, and herbicide” (NISSAN CHEMICAL CORPORATION, priority 2014, dated 2021)
